Experimental data reported in ChEMBL document CHEMBL1201862, “PubChem BioAssay data set” (2004).
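Test compounds were applied to cells in 96-well plates for 48 hours at 5 doses. Abbreviation: GI50, concentration required for 50% inhibition of growth.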 Active and inactive are the calls of the source. No stated cut-off is given here; in the data, active = GI50 up to about 1.1 µM and inactive = higher.

Key:
Experiment in all cases: inhibition of tumour cell growth, NCI panel, 48 h
[1] = tested on: CAKI-1
[2] = tested on: SN12C
[3] = tested on: NCI-H226
[4] = tested on: SW-620
[5] = tested on: UACC-257
[6] = tested on: EKVX
[7] = tested on: PC-3
[8] = tested on: HOP-62
[9] = tested on: UACC-62
[10] = tested on: CCRF-CEM
[11] = tested on: MOLT-4
[12] = tested on: SNB-19
[13] = tested on: UO-31
[14] = tested on: NCI/ADR-RES
[15] = tested on: SK-MEL-2
[16] = tested on: OVCAR-4
[17] = tested on: NCI-H23
[18] = tested on: SF-539
[19] = tested on: OVCAR-8
[20] = tested on: DU-145

Measured: GI50

O=C(CN1CCN(C(=O)OCc2ccccc2)CCN(CC(=O)N2CCCCC2)CCN(C(=O)OCc2ccccc2)CC1)N1CCCCC1
inactive: [1] 5.04 µM | [2] 11.6 µM | [3] 5.82 µM | [4] 19.6 µM | [5] 3.49 µM | [6] 24.9 µM | [7] 12.6 µM | [8] 19.5 µM | [9] 18.1 µM | [10] 6.44 µM | [11] 7.41 µM | [12] 19.7 µM | [13] 3.19 µM | [14] 10.9 µM | [15] 19.5 µM | [16] 4.8 µM | [17] 20.7 µM | [18] 14.6 µM | [19] 8.61 µM | [20] 21.4 µM

COc1ccc(C(SC2C(O)C(CO)OC2n2ccc(=O)[nH]c2=O)(c2ccccc2)c2ccc(OC)cc2)cc1 (stereo not given)
inactive: [1] 30.4 µM | [2] 14.4 µM | [3] 16.6 µM | [4] 22.2 µM | [5] 16.1 µM | [6] 17.1 µM | [7] 14.9 µM | [8] 17.9 µM | [9] 15.9 µM | [10] 23.8 µM | [11] 26.9 µM | [12] 12.4 µM | [13] 16.6 µM | [14] 18.9 µM | [15] 15.1 µM | [16] 19.7 µM | [17] 17.7 µM | [18] 22 µM | [19] 19.1 µM | [20] 18.4 µM

NC1=C(Cl)C(=O)c2c(O)ccc(O)c2C1=O
inactive: [1] 16.5 µM | [2] 3.28 µM | [3] 11.6 µM | [4] 3.15 µM | [5] 1.6 µM | [6] 12 µM | [7] 3.47 µM | [8] 5.36 µM | [9] 1.59 µM | [10] 4.09 µM | [11] 6.98 µM | [12] 3.89 µM | [13] 9.06 µM | [14] 3.61 µM | [15] 4.72 µM | [16] 4.11 µM | [17] 2.05 µM | [18] 2.84 µM | [19] 3.82 µM | [20] 2.2 µM

NC(=O)NC(=O)CCC(NS(=O)(=O)c1ccccc1)C(=O)NC(N)=O (stereo not given)
inactive: [1] > 100 µM | [2] > 100 µM | [3] > 100 µM | [4] > 100 µM | [5] > 100 µM | [6] > 100 µM | [7] > 100 µM | [8] > 100 µM | [9] > 100 µM | [10] > 100 µM | [11] > 100 µM | [12] > 100 µM | [13] > 100 µM | [14] > 100 µM | [15] > 100 µM | [16] > 100 µM | [17] > 100 µM | [18] > 100 µM | [19] > 100 µM | [20] > 100 µM
